Test results published in BindingDB's records for patent US20240018157 (Schrödinger, 2024).

Target: T1, Mucosa-associated lymphoid tissue lymphoma translocation protein 1 (Homo sapiens, UniProt Q9UDY8)
T1 sequence (Q9UDY8 whole entry): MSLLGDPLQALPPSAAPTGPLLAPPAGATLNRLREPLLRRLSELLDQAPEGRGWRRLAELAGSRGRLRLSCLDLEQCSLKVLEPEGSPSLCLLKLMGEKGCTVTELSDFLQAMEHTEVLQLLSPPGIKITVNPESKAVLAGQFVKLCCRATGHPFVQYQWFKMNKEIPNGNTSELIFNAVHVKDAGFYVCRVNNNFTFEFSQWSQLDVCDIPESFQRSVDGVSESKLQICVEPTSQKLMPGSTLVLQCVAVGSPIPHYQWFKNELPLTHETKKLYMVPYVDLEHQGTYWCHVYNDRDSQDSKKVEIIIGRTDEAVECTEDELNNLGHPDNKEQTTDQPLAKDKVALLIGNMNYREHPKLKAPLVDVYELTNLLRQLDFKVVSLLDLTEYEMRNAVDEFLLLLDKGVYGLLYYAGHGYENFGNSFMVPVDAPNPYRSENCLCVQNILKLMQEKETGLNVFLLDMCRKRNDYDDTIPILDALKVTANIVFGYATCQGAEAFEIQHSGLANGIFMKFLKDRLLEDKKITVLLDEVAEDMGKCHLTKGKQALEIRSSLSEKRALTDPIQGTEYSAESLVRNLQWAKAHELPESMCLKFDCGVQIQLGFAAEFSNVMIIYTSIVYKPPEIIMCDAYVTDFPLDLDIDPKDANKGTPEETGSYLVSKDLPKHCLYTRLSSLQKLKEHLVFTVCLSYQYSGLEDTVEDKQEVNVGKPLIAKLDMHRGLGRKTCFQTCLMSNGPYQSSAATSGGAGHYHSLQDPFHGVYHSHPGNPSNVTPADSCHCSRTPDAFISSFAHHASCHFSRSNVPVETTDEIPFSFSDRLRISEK
Test: MALT1 Protease Assay 2
Experimental: Test compounds were dissolved in 100% DMSO at stock of 10 mM, with final DMSO concentration 0.1%. Test compounds were pre-incubated with MALT1 protein for 2 h at room temperature.

| SMILES | IC50 |
| --- | --- |
| C[C@]1(C(F)(F)F)CN(C(=O)Nc2cnnc(C(F)F)c2)c2cnc3c(F)c(F)nn3c21 [US20240018157, Example 141] | > 1 µM |
| C[C@]1(C(F)(F)F)CN(C(=O)Nc2cnc(-n3nccn3)c(Cl)c2)c2cnc3c(F)cnn3c21 [US20240018157, Example 147] | > 1 µM |
| C[C@@]1(C(F)(F)F)CN(C(=O)Nc2cnnc(C(F)F)c2)c2cnc3cc(CC(F)F)nn3c21 [US20240018157, Example 156] | > 1 µM |
| CCc1nn2c3c(cnc2c1N)N(C(=O)Nc1cnc(-n2nccn2)c(Cl)c1)C[C@@]3(C)C(F)(F)F [US20240018157, Example 158] | > 1 µM |
| Cc1nn2c3c(cnc2c1N)N(C(=O)Nc1cnc(-n2nccn2)c(Cl)c1)C[C@@]3(C)C(F)(F)F [US20240018157, Example 160] | > 1 µM |
| CN1CC(n2nc(NC(=O)N3C[C@@](C)(C(F)(F)F)c4c3cnc3cc(Cl)nn43)cc2Cl)C1 [US20240018157, Example 163] | > 1 µM |
| C[C@@]1(C(F)(F)F)CN(C(=O)N[C@@H]2CCC(F)(F)C2)c2cnc3cc(Cl)nn3c21 [US20240018157, Example 165] | > 1 µM |
| C[C@@]1(C(F)(F)F)CN(C(=O)N[C@H]2CCC(F)(F)C2)c2cnc3cc(Cl)nn3c21 [US20240018157, Example 166] | > 1 µM |
| CN1CCOC(c2ncc(NC(=O)N3C[C@@](C)(C(F)(F)F)c4c3cnc3cc(Cl)nn43)cc2Cl)C1 (some centres undefined) [US20240018157, Example 167] | > 1 µM |
| C[C@@]1(C(F)(F)F)CN(C(=O)Nc2cnc(C3(O)CCC3)c(Cl)c2)c2cnc3cc(Cl)nn3c21 [US20240018157, Example 168] | > 1 µM |
| CN1CC(Nc2cc(NC(=O)N3C[C@@](C)(C(F)(F)F)c4c3cnc3cc(Cl)nn43)cc(C(F)(F)F)n2)C1 [US20240018157, Example 169] | > 1 µM |
| CC1(C)CC(NC(=O)N2C[C@@](C)(C(F)(F)F)c3c2cnc2cc(Cl)nn32)CCO1 (some centres undefined) [US20240018157, Example 170] | > 1 µM |
| C[C@@]1(C(F)(F)F)CN(C(=O)N[C@@H]2CCCC[C@H]2O)c2cnc3cc(Cl)nn3c21 [US20240018157, Example 171] | > 1 µM |
| CC1CC(NC(=O)N2C[C@@](C)(C(F)(F)F)c3c2cnc2cc(Cl)nn32)CCO1 (some centres undefined) [US20240018157, Example 173] | > 1 µM |
| C[C@@]1(C(F)(F)F)CN(C(=O)NC2CCC3(CCCO3)CC2)c2cnc3cc(Cl)nn3c21 (some centres undefined) [US20240018157, Example 174] | > 1 µM |
| C[C@@]1(C(F)(F)F)CN(C(=O)n2nc(C(F)(F)F)cc2N)c2cnc3cc(Cl)nn3c21 [US20240018157, Example 175] | > 1 µM |
| Cc1cc(NC(=O)N2C[C@@](C)(C(F)(F)F)c3c2cnc2cc(Cl)nn32)nc2c1cnn2C [US20240018157, Example 176] | > 1 µM |
| C[C@@]1(C(F)(F)F)CN(C(=O)n2nc(C(F)F)cc2N)c2cnc3cc(Cl)nn3c21 [US20240018157, Example 177] | > 1 µM |
| CN1CC(Oc2cc(C(F)F)cc(NC(=O)N3C[C@@](C)(C(F)(F)F)c4c3cnc3cc(Cl)nn43)n2)C1 [US20240018157, Example 178] | > 1 µM |
| C[C@@]1(C(F)(F)F)CN(C(=O)Nc2cc(C(F)F)ns2)c2cnc3cc(Cl)nn3c21 [US20240018157, Example 179] | > 1 µM |
| C[C@]1(C(F)(F)F)CN(C(=O)Nc2cnc(-n3nccn3)c(C(F)(F)F)c2)c2cnc3cc(F)nn3c21 [US20240018157, Example 182] | > 1 µM |

The remaining lines, values ahead:

| IC50 | SMILES |
| --- | --- |
| < 0.01 µM | C[C@@H](O)c1cnn(-c2ncc(NC(=O)N3C[C@@](C)(C(F)(F)F)c4c3cnc3cc(Cl)nn43)cc2C(F)F)n1 [US20240018157, Example 127] |
| < 0.01 µM | C[C@@]1(C(F)F)CN(C(=O)Nc2cnc(-n3nccn3)c(Cl)c2)c2cnc3cc(Cl)nn3c21 [US20240018157, Example 128] |
| 0.01 to 0.1 µM | C[C@]1(C(F)F)CN(C(=O)Nc2cnc(-n3nccn3)c(Cl)c2)c2cnc3cc(Cl)nn3c21 [US20240018157, Example 129] |
| 0.1 to 1 µM | CO[C@]1(C(F)(F)F)CN(C(=O)Nc2cnc(-n3nccn3)c(Cl)c2)c2cnc3cc(Cl)nn3c21 [US20240018157, Example 135] |
| < 0.01 µM | CO[C@@]1(C(F)(F)F)CN(C(=O)Nc2cnc(-n3nccn3)c(Cl)c2)c2cnc3cc(Cl)nn3c21 [US20240018157, Example 136] |
| > 1 µM | C[C@]1(C(F)(F)F)CN(C(=O)Nc2cnnc(C(F)F)c2)c2cnc3c(F)c(Cl)nn3c21 [US20240018157, Example 137] |
| 0.01 to 0.1 µM | C[C@@]1(C(F)(F)F)CN(C(=O)Nc2cnnc(C(F)F)c2)c2cnc3c(F)c(Cl)nn3c21 [US20240018157, Example 138] |
| > 1 µM | C[C@]1(C(F)(F)F)CN(C(=O)Nc2cnc(-n3nccn3)c(Cl)c2)c2cnc3c(F)c(F)nn3c21 [US20240018157, Example 139] |
| < 0.01 µM | C[C@@]1(C(F)(F)F)CN(C(=O)Nc2cnc(-n3nccn3)c(Cl)c2)c2cnc3c(F)c(F)nn3c21 [US20240018157, Example 140] |
| 0.01 to 0.1 µM | C[C@@]1(C(F)(F)F)CN(C(=O)Nc2cnnc(C(F)F)c2)c2cnc3c(F)c(F)nn3c21 [US20240018157, Example 142] |
| 0.01 to 0.1 µM | O=C(Nc1cnnc(C(F)F)c1)N1C[C@@](C2CC2)(C(F)(F)F)c2c1cnc1cc(Cl)nn21 [US20240018157, Example 144] |
| 0.1 to 1 µM | O=C(Nc1cnnc(C(F)F)c1)N1C[C@](C2CC2)(C(F)(F)F)c2c1cnc1cc(Cl)nn21 [US20240018157, Example 145] |
| < 0.01 µM | C[C@@]1(C(F)(F)F)CN(C(=O)Nc2cnc(-n3nccn3)c(Cl)c2)c2cnc3c(F)cnn3c21 [US20240018157, Example 146] |
| < 0.01 µM | C[C@@]1(C(F)(F)F)CN(C(=O)Nc2cnc(C(=O)NC3CC3)c(C(F)F)c2)c2cnc3cc(Cl)nn3c21 [US20240018157, Example 150] |
| < 0.01 µM | CN(C(=O)c1ncc(NC(=O)N2C[C@@](C)(C(F)(F)F)c3c2cnc2cc(Cl)nn32)cc1C(F)F)C1CC1 [US20240018157, Example 151] |
| < 0.01 µM | Cc1cn2ncc3c(c2n1)[C@](C)(C(F)(F)F)CN3C(=O)Nc1cnc(-n2nccn2)c(Cl)c1 [US20240018157, Example 152] |
| 0.01 to 0.1 µM | Cc1cn2ncc3c(c2n1)[C@@](C)(C(F)(F)F)CN3C(=O)Nc1cnc(-n2nccn2)c(Cl)c1 [US20240018157, Example 153] |
| 0.1 to 1 µM | Cc1nnc(C(F)F)cc1NC(=O)N1C[C@@](C)(C(F)(F)F)c2c1cnc1cc(Cl)nn21 [US20240018157, Example 154] |
| 0.1 to 1 µM | C[C@]1(C(F)(F)F)CN(C(=O)Nc2cnnc(C(F)F)c2)c2cnc3cc(CC(F)F)nn3c21 [US20240018157, Example 155] |
| 0.1 to 1 µM | CCc1nn2c3c(cnc2c1N)N(C(=O)Nc1cnc(-n2nccn2)c(Cl)c1)C[C@]3(C)C(F)(F)F [US20240018157, Example 157] |
| 0.01 to 0.1 µM | Cc1nn2c3c(cnc2c1N)N(C(=O)Nc1cnc(-n2nccn2)c(Cl)c1)C[C@]3(C)C(F)(F)F [US20240018157, Example 159] |
| 0.1 to 1 µM | Cc1nnc(C(F)F)cc1NC(=O)N1C[C@@](C)(C(F)(F)F)c2c1cnc1cc(F)nn21 [US20240018157, Example 161] |
| < 0.01 µM | C[C@@]1(C(F)(F)F)CN(C(=O)Nc2cnc(-n3nccn3)c(C(F)(F)F)c2)c2cnc3cc(F)nn3c21 [US20240018157, Example 181] |
